Patent publication US9273057B2 (Bristol-Myers Squibb Company, priority 2012, dated 2016)
pIC50: −log10 of the molar value.

Target: CK2A1 (CK2α/β) (Homo sapiens, UniProt P68400)
Test: CK2 kinase assay, CK2A1 (CK2α/β)
Format: biochemical
Details: Table A; read-out: CK2A1 (CK2α/β) (IC50)

CK2A1 (CK2α/β), sequence (P68400 whole entry, species assumed): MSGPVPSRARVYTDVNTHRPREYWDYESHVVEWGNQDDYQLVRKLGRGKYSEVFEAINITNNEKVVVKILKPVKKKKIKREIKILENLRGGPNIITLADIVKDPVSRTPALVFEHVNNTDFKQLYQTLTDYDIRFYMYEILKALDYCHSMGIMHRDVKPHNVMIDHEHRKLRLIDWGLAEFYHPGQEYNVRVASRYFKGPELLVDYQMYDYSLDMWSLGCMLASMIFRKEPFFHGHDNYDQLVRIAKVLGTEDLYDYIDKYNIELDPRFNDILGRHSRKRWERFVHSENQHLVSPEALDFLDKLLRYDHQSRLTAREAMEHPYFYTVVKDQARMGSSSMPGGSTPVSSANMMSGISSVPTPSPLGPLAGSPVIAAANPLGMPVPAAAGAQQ
CK2A1 (CK2α/β), sequence (P67870 whole entry partner, species assumed): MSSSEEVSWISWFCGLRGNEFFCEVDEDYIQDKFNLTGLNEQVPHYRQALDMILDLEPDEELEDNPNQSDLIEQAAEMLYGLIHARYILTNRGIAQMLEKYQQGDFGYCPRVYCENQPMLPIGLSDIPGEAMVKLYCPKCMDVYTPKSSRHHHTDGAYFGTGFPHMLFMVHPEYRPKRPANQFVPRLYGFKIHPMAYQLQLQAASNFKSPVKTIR

SMILES	pIC50
CCNc1nc(Nc2cc(C#N)cc(N3CC[C@@H](NC(=O)OC)[C@H](NC4COC4)C3)c2Cl)nn2c(C#N)cnc12 [Example 746, methyl ((3R,4R)-1-(2-chloro-5-cyano-3-((7-cyano-4-(ethylamino)imidazo[2,1-f][1,2,4]triazin-2-yl)amino)phenyl)-3-(oxetan-3-ylamino)piperidin-4-yl)carbamate]	8.87
CS(=O)(=O)NCC1CN(c2cc(C#N)cc(Nc3nc(NC4CC4)c4ncc(C#N)n4n3)c2Cl)CCO1 (racemic) [Example 700, (+/−)-N-((4-(2-chloro-5-cyano-3-((7-cyano-4-(cyclopropylamino)imidazo[2,1-f][1,2,4]triazin-2-yl)amino)phenyl)morpholin-2-yl)methyl)methanesulfonamide]	9.24
CCNc1nc(Nc2cc(C#N)cc(N3CCC4(CC3)CN(C)C(=O)O4)c2Cl)nn2c(C#N)cnc12 (racemic) [Example 781, (+/−)-2-((2-chloro-5-cyano-3-(3-methyl-2-oxo-1-oxa-3,8-diazaspiro[4.5]decan-8-yl)phenyl)amino)-4-(ethylamino)imidazo[2,1-f][1,2,4]triazine-7-carbonitrile]	9.15
CCNc1nc(Nc2cc(C#N)cc(N3CC[C@@H](NC(=O)OC)[C@H](OC(=O)[C@@H](C)OP(=O)(O)O)C3)c2Cl)nn2c(C#N)cnc12 [Example 342, (R)-(3R,4R)-1-(2-chloro-5-cyano-3-((7-cyano-4-(ethylamino)imidazo[2,1-f][1,2,4]triazin-2-yl)amino)phenyl)-4-((methoxycarbonyl)amino)piperidin-3-yl 2-(phosphonooxy)propanoate]	9.43
N#Cc1cc(Nc2nc(NC3CC3)c3ncc(C#N)n3n2)c(Cl)c(N2CCN3C(CCS3(=O)=O)C2)c1 (racemic) [Example 788, (+/−)-2-((2-chloro-5-cyano-3-(1,1-dioxidotetrahydro-2H-isothiazolo[2,3-a]pyrazin-5 (3H)-yl)phenyl)amino)-4-(cyclopropylamino)imidazo[2,1-f][1,2,4]triazine-7-carbonitrile]	9.21
CC(CO)N1CC(N2CCN(c3cc(C#N)cc(Nc4nc(NC5CC5)c5ncc(C#N)n5n4)c3Cl)CC2)C1 (stereo not drawn) [Example 608, 2-[(2-chloro-5-cyano-3-{4-[1-(1-hydroxypropan-2-yl)azetidin-3-yl]piperazin-1-yl}phenyl)amino]-4-(cyclopropylamino)imidazo [2,1-f][1,2,4]triazine-7-carbonitrile]	8.83
COC(=O)Nc1cc(Nc2nc(NC3CC3)c3ncc(C#N)n3n2)c(Cl)c(N2CCN(C)CC2)c1 [Example 200, methyl (4-chloro-3-((7-cyano-4-(cyclopropylamino)imidazo[2,1-f][1,2,4]triazin-2-yl)amino)-5-(4-methylpiperazin-1-yl)phenyl)carbamate]	8.60
COC(=O)NC1CCN(c2cc(C#N)cc(Nc3nc(NC4CC4)c4ncc(C#N)n4n3)c2Cl)C[C@H]1N(C)CC(C)(C)O (stereo in doubt) [Example 767, methyl N-[(3R,4S)-1-(2-chloro-5-cyano-3-{[7-cyano-4-(cyclopropylamino)imidazo [2,1-f][1,2,4]triazin-2-yl]amino}phenyl)-3-[(2-hydroxy-2-methylpropyl)(methyl)amino]piperidin-4-yl] carbamate]	7.74
CN1CCCN(C2CN(c3cc(C#N)cc(Nc4nc(NC5CC5)c5ncc(C#N)n5n4)c3Cl)C2)CC1 [Example 29, 2-((2-chloro-5-cyano-3-(3-(4-methyl-1,4-diazepan-1-yl)-1-azetidinyl)phenyl)amino)-4-(cyclopropylamino)imidazo [2,1-f][1,2,4]triazine-7-carbonitrile]	9.51
N#Cc1cc(Nc2nc(NC3CC3)c3ncc(C#N)n3n2)c(Cl)c(N2CCN(C3COC3)CC2)c1 [Example 105, 2-(2-chloro-5-cyano-3-(4-(oxetan-3-yl)piperazin-1-yl)phenylamino)-4-(cyclopropylamino) imidazo[1,2-f][1,2,4] triazine-7-carbonitrile]	9.38
CN1CCN(CCC(F)(F)c2cc(C#N)cc(Nc3nc(NC4CC4)c4ncc(C#N)n4n3)c2Cl)CC1 [Example 738, 2-((2-chloro-5-cyano-3-(1,1-difluoro-3-(4-methylpiperazin-1-yl)propyl)phenyl)amino)-4-(cyclopropylamino)imidazo[2,1-f][1,2,4]triazine-7-carbonitrile]	9.57
CC(O)CN1CCN(c2cc(C#N)cc(Nc3nc(NC4CC4)c4ncc(C#N)n4n3)c2Cl)C(=O)C1 (racemic) [Example 624, (+/−)-2-((2-chloro-5-cyano-3-(4-(2-hydroxypropyl)-2-oxopiperazin-1-yl)phenyl)amino)-4-(cyclopropylamino)imidazo[2,1-f][1,2,4]triazine-7-carbonitrile]	8.53
N#Cc1cc(Nc2nc(NC3CC3)c3ncc(C#N)n3n2)c(Cl)c(N2CCN(C3(CCO)COC3)CC2)c1 [Example 537, 2-((2-chloro-5-cyano-3-(4-(3-(2-hydroxyethyl)oxetan-3-yl)piperazin-1-yl)phenyl)amino)-4-(cyclopropylamino)imidazo[2,1-f][1,2,4]triazine-7-carbonitrile]	8.98
COc1ccc(CN2CCN(c3cc(C#N)cc(Nc4nc(NC5CC5)c5ncc(C#N)n5n4)c3Cl)C(=O)C2)cc1 [Example 631, 2-((2-chloro-5-cyano-3-(4-(4-methoxybenzyl)-2-oxopiperazin-1-yl)phenyl)amino)-4-(cyclopropylamino)imidazo[2,1-f][1,2,4]triazine-7-carbonitrile]	8.96
CC(=O)NCC1CN(c2cc(C#N)cc(Nc3nc(NC4CC4)c4ncc(C#N)n4n3)c2Cl)CCO1 (stereo not drawn) [Example 712, N-{[4-(2-chloro-5-cyano-3-{[7-cyano-4-(cyclopropylamino)imidazo[2,1-f][1,2,4]triazin-2-yl]amino}phenyl)morpholin-2-yl]methyl}acetamide]	8.93
CC(C)(CO)N1CCC(c2cc(C#N)cc(Nc3nc(NC4CC4)c4ncc(C#N)n4n3)c2Cl)CC1 [Example 643, 2-((2-chloro-5-cyano-3-(1-(1-hydroxy-2-methylpropan-2-yl)piperidin-4-yl)phenyl)amino)-4-(cyclopropylamino)imidazo[2,1-f][1,2,4]triazine-7-carbonitrile]	8.67
C[C@@H](N)C(=O)N1CCC(c2cc(C#N)cc(Nc3nc(NC4CC4)c4ncc(C#N)n4n3)c2Cl)CC1 [Example 241, 2-((3-(1-D-alanyl-4-piperidinyl)-2-chloro-5-cyanophenyl)amino)-4-(cyclopropylamino)imidazo[2,1-f][1,2,4]triazine-7-carbonitrile]	9.23
CN1CCN(c2cc(C#N)cc(Nc3nc(NC4CC4)c4ncc(C#N)n4n3)c2Cl)CC1CO (racemic) [Example 698, (+/−)-2-({2-chloro-5-cyano-3-[3-(hydroxymethyl)-4-methylpiperazin-1-yl]phenyl}amino)-4-(cyclopropylamino)imidazo[2,1-f][1,2,4]triazine-7-carbonitrile]	8.87
CCNc1nc(Nc2cc(C#N)cc(N3CC[C@@H]4[C@@H](C3)OC(=O)N4[C@H]3CCOC3)c2Cl)nn2c(C#N)cnc12 (single isomer, unassigned) [Example 844]	8.74
COC(=O)NN1CCN(c2cc(C#N)cc(Nc3nc(NC4CC4)c4ncc(C#N)n4n3)c2Cl)CC1 [Example 790, methyl (4-(2-chloro-5-cyano-3-((7-cyano-4-(cyclopropylamino)imidazo[2,1-f][1,2,4]triazin-2-yl)amino)phenyl)piperazin-1-yl)carbamate]	8.82
CCNc1nc(Nc2ccc3c(c2)c(C#N)cn3C2CCN(C3CNC3)CC2)nn2c(C#N)cnc12 [Example 832, 2-((1-(1-(azetidin-3-yl)piperidin-4-yl)-3-cyano-1H-indol-5-yl)amino)-4-(ethylamino)imidazo[2,1-f][1,2,4]triazine-7-carbonitrile]	9.27
CC(C)(O)CN1CCC(c2cc(C#N)cc(Nc3nc(NC4CC4)c4ncc(C#N)n4n3)c2Cl)CC1 [Example 219, 2-((2-chloro-5-cyano-3-(1-(2-hydroxy-2-methylpropyl)-4-piperidinyl)phenyl)amino)-4-(cyclopropylamino)imidazo[2,1-f][1,2,4]triazine-7-carbonitrile]	9.23
N#Cc1cc(Nc2nc(NC3CC3)c3ncc(C#N)n3n2)c(Cl)c(N2CCC(NCC3CC3)CC2)c1 [Example 136, 2-((2-chloro-5-cyano-3-(4-((cyclopropylmethyl)amino)-1-piperidinyl)phenyl)amino)-4-(cyclopropylamino)imidazo [2,1-f][1,2,4]triazine-7-carbonitrile]	7.66
N#Cc1cc(Nc2nc(NC3CC3)c3ncc(C#N)n3n2)c(Cl)c(N2C[C@@H]3CCCN(C4COC4)[C@@H]3C2)c1 [Example 778, 2-((2-chloro-5-cyano-3-((4aS,7aS)-1-(oxetan-3-yl)hexahydro-1H-pyrrolo[3,4-b]pyridin-6(2H)-yl)phenyl)amino)-4-(cyclopropylamino)imidazo[2,1-f][1,2,4]triazine-7-carbonitrile]	8.96
N#Cc1cnc2c(NC3CC3)nc(Nc3cc(C(F)F)cc(N4CCC(C(=O)O)CC4)c3Cl)nn12 [Example 545, 1-(2-chloro-3-((7-cyano-4-(cyclopropylamino)imidazo[2,1-f][1,2,4]triazin-2-yl)amino)-5-(difluoromethyl)phenyl)piperidine-4-carboxylic acid]	8.81
N#CCC1(NC2CCN(c3cc(C#N)cc(Nc4nc(NC5CC5)c5ncc(C#N)n5n4)c3Cl)CC2)COC1 (racemic) [Example 114, (+/−) 2-((2-chloro-5-cyano-3-(4-((3-(cyanomethyl)-3-oxetanyl)amino)-1-piperidinyl)phenyl)amino)-4-(cyclopropylamino)imidazo [2,1-f][1,2,4]triazine-7-carbonitrile]	8.80
N#Cc1cc(C=O)c(Cl)c(Nc2nc(NC3CC3)c3ncc(C#N)n3n2)c1 [Example 400, 2-((2-chloro-5-cyano-3-formylphenyl)amino)-4-(cyclopropylamino)imidazo[2,1-f][1,2,4]triazine-7-carbonitrile]	9.31
